Test results: PMC10111022, “Comparison of pharmacological inhibitors of lysine-specific demethylase 1 in glioblastoma stem cells reveals inhibitor-specific efficacy profiles” (Frontiers in Neurology, 2023)

Tested on: NK or T-cells
Assay: Flow cytometry of peripheral blood NK and T-cell subsets at day 50
Type: in vivo, athymic nude mice
Conditions: peripheral blood mononuclear cells
Method: Once confirmation of intracranial tumor engraftment at 7 days post-engraftment, the mice were equally randomized into groups to receive either GSK-LSD1 or the vehicle control. The mice received GSK-LSD1 1 mg/kg diluted in DMSO and PBS (5 and 95%, respectively) via intraperitoneal injection (200 μL/mouse) while the control mice received the untreated vehicle in parallel. In accordance with the approved IACUC protocol (No: 638-RN03) at MD Anderson Cancer Center, treatment continued until the mice succumbed to tumor burden and were found in a moribund condition as determined by neurological impairment (hydrocephalus, seizures, inactivity, and/or ataxia) or morbidity (hunched posture or weight loss). At this time mice were euthanized by both carbon dioxide exposure and cervical dislocation. Flow cytometric characterization of immune cell subsets was carried out in blood samples obtained from mice (four control mice and six GSK-LSD1 mice) in each group at day 50 via cardiac puncture and the sample was processed using Ficoll (GE Healthcare; Chicago, IL) centrifugation to collect the peripheral blood mononuclear cells (PBMCs). Next, PBMCs were stained with the Ghost Dye Violet (Tonbo; San Diego, CA) and then incubated with antibodies at 4°C for 25 min before analysis. […]

c1ccc([C@@H]2C[C@H]2NC2CCNCC2)cc1 [GSK-LSD1]
cytotoxic effects on NK or T-cells: does not have cytotoxic effects
